PubChem BioAssay (NCI)
“And” between values parts separate entries of the source, which are not always exact repeats. Identical values can stand only once.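 Where inhibition never reached the appropriate level, the endpoint shown equals the highest concentration tested. Otherwise, values were interpolated linearly from a five-concentration, 48-hour dose response in 96-well plates. GI50 marks 50% less growth. TGI: total growth inhibition.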

Tests used:
Test in all cases: inhibition of tumour cell growth, NCI panel, 48 h
A549 NSCLC = tested on: A549 NSCLC
CAKI-1 renal = tested on: CAKI-1 renal
COLO 205 colon = tested on: COLO 205 colon
HCC-2998 colon = tested on: HCC-2998 colon
M14 melanoma = tested on: M14 melanoma
MALME-3M melanoma = tested on: MALME-3M melanoma
OVCAR-8 ovarian = tested on: OVCAR-8 ovarian
SK-MEL-5 melanoma = tested on: SK-MEL-5 melanoma
TK-10 renal = tested on: TK-10 renal
UACC-62 melanoma = tested on: UACC-62 melanoma
K-562 leukemia = tested on: K-562 leukemia
MOLT-4 leukemia = tested on: MOLT-4 leukemia
SR leukemia = tested on: SR leukemia

Row | SMILES | TGI (A549 NSCLC) [µM] | TGI (CAKI-1 renal) [µM] | TGI (COLO 205 colon) [µM] | TGI (HCC-2998 colon) [µM] | TGI (M14 melanoma) [µM] | TGI (MALME-3M melanoma) [µM] | TGI (OVCAR-8 ovarian) [µM] | TGI (SK-MEL-5 melanoma) | TGI (TK-10 renal) [µM] | TGI (UACC-62 melanoma) [µM] | TGI (K-562 leukemia) [µM] | TGI (MOLT-4 leukemia) [µM] | TGI (SR leukemia) [µM] | GI50 (A549 NSCLC) [µM] | GI50 (COLO 205 colon) [µM] | GI50 (OVCAR-8 ovarian) [µM] | GI50 (SK-MEL-5 melanoma) [µM]
1 | CC1=NC2=Nc3nc(C)cc[n+]3CN2C=C1 | > 100 | > 100 | > 100 | > 100 | > 100 | > 100 | > 100 | > 100 µM | > 100 | > 100 |  |  |  |  |  |  | 
2 | O=CNNC(=O)Nc1cccc2ccccc12 | > 100 |  | > 100 | > 100 | > 100 | > 100 | > 100 | > 100 µM | > 100 | > 100 | > 100 | > 100 | > 100 |  |  |  | 
3 | Cc1c2c3ccccc3nc-2n(C)c2ccccc12 | 9.19 |  |  | 11.4 | 20.5 | 5.98 | 15.1 | 2.2 µM | 9.09 | 3.67 | 5.28 | 2.01 | 25.2 |  |  |  | 
4 | Brc1ccc(C[P+]2(c3ccccc3)CCCCC2)cc1 | > 100 |  | > 100 | > 100 | > 100 | > 100 | > 100 | 39.1 µM | > 100 | > 100 | > 100 | > 100 | > 100 |  |  |  | 
5 | O=S(=O)(O)c1cc(N=Nc2c(O)ccc3ccccc23)ccc1/C=C/c1ccc(N=Nc2c(O)ccc3ccccc23)cc1S(=O)(=O)O | > 100 | > 100 | > 100 |  | > 100 | > 100 | > 100 | > 100 µM | > 100 | > 100 | > 100 |  |  |  |  |  | 
6 | O=C(O)CCC(=O)c1ccc2c(c1)C(C(=O)O)CC2 (centres undefined) | > 100 |  | > 100 | > 100 | > 100 | > 100 | > 100 | > 100 µM | > 100 | > 100 | > 100 | > 100 | > 100 |  |  |  | 
7 | Cc1ccc(SC2C(=O)C3CC(OCc4ccccc4)C2(C)C3(C)C)cc1 (centres undefined) | > 100 |  |  | > 100 | > 100 | > 100 | > 100 | > 100 µM | > 100 | > 100 | > 100 | > 100 | > 100 |  |  |  | 
8 | OC1(c2ccc(-c3ccccc3)cc2)c2ccccc2C2=NCCN21 (centres undefined) | > 100 | > 100 | 48.3 | 40.4 |  |  |  | 43.6 µM | > 100 | 53.1 | > 100 | > 100 | > 100 |  |  |  | 
9 | CO/N=C(/C)c1cccc(Nc2nc3ccccc3c3[nH]c4ccccc4c23)c1 | 24.7 | 24.2 | 20.3 |  | 21.1 |  | 20.9 | 18.2 µM |  | 19.3 | > 100 | 27.2 | > 100 |  |  |  | 
10 | Cc1nc(CC#N)n[nH]1 | > 100 |  | > 100 | > 100 | > 100 |  | > 100 | > 100 µM | > 100 | > 100 | > 100 | > 100 | > 100 |  |  |  | 
11 | CCOC(=O)c1[nH]c(-c2[nH]c(-c3[nH]c(-c4[nH]c(C(=O)OCC)c(C)c4C(=O)OCC)c(C(=O)OCC)c3C)c(C)c2C(=O)OCC)c(C(=O)OCC)c1C | > 100 | > 100 | > 100 | > 100 | > 100 | > 100 | > 100 | > 100 µM | > 100 | > 100 | > 100 | > 100 |  |  |  |  | 
12 | NC(=S)/N=C(/c1nc2ccc(Cl)cc2[nH]c1=O)C(O)c1ccccc1Cl (centres undefined) | > 100 |  | > 100 | > 100 | > 100 | > 100 | > 100 |  | > 100 | > 100 | > 100 | > 100 |  |  |  |  | 
13 | O=C(/C=C/c1ccc(-c2ccccc2)cc1)NCc1ccc(C(=O)NCc2ccccc2)cc1 | > 100 | > 100 | > 100 | > 100 | > 100 | > 100 | > 100 | > 100 µM | > 100 | > 100 |  |  |  |  |  |  | 
14 | COC(=O)c1ccc(/C=C2\Oc3ccccc3C2=O)cc1 | > 100 | > 100 | > 100 | > 100 | > 100 |  | > 100 | > 100 µM | > 100 | > 100 |  | > 100 | > 100 |  |  |  | 
15 | CC(NC(=O)NC(C)(C)C)NC(=O)C(N)CC(=O)O (centres undefined) | > 100 | > 100 | > 100 |  | > 100 | > 100 | > 100 | > 100 µM | > 100 | > 100 | > 100 | > 100 |  |  |  |  | 
16 | CN1C/C(=C\c2cccs2)C(O)/C(=C/c2cccs2)C1 (centres undefined) | > 100 | > 100 | > 100 | > 100 | > 100 | > 100 | > 100 | > 100 µM | > 100 | > 100 | > 100 | 69.6 |  |  |  |  | 
17 | CCOC(=O)c1[nH]c(Br)c(-c2ccc(OC)c(OC)c2)c1Br | 23 |  | 1.07 |  | 16 |  | 36.8 | 4.3 µM and 6.5 µM | 55.2 | 22 | 12.7 | 8.59 | 13.4 | 0.0564 | 0.02 | 0.0511 | 0.0339
18 | CC1(C)OC2[C@@H](CO[C@@]3([C@@H](O)CCO)OC(C)(C)O[C@@H]23)O1 (some centres undefined) |  | > 100 | > 100 | > 100 | > 100 |  | > 100 | > 100 µM | > 100 | > 100 | > 100 | > 100 | > 100 |  |  |  | 
19 | C#C/C=C\CCCC/C=C\C#CC#CCCCC#CC#C[C@H](COS(=O)(=O)O)OS(=O)(=O)O | > 100 | > 100 | > 100 | > 100 | > 100 |  | > 100 | > 100 µM | > 100 | > 100 |  | > 100 | > 100 |  |  |  | 
20 | CCOC(=O)c1nnsc1N/N=C\c1ccc([N+](=O)[O-])cc1 | > 100 |  | > 100 | > 100 | > 100 | > 100 | > 100 | > 100 µM | > 100 | > 100 | > 100 | > 100 |  |  |  |  | 
21 | COc1c(/C=C/C(C)(C)O)cc(C2CC(=O)c3c(O)cc(O)cc3O2)cc1CC=C(C)C (centres undefined) | 19.8 | > 50 | 17.7 | 8.66 | 16 | 18 | 23.1 | 15.6 µM | 15.8 | 13.3 | 35.7 | 35 |  |  |  |  | 
22 | O=c1cc(CO)oc2c3c(cc(O)c12)OCC(COC1OC(CO)C(O)C(O)C1O)=CC3 (centres undefined) | > 100 | > 100 | > 100 | > 100 | > 100 |  | > 100 | > 100 µM | > 100 | > 100 | > 100 | > 100 | > 100 |  |  |  | 
23 | CCOc1ccc2[nH]c3c(C)c4ccncc4c(C)c3c2c1 | 2.88 | 3.06 | 3.04 | 2.74 | 2.9 | 2.83 |  | 2.86 µM | 3.59 |  | > 100 |  |  |  |  |  | 
24 | COc1ccc(C(=O)O[C@H]2[C@@H]3C=CO[C@@H](OC4OC(CO)C(O)C(O)C4O)[C@@H]3[C@@]3(CO)O[C@@H]23)cc1O (some centres undefined) | > 100 | > 100 | > 100 | > 100 | > 100 | > 100 | > 100 | > 100 µM | > 100 | > 100 | > 100 | > 100 |  |  |  |  | 
25 | Cc1cc2/c(=C\c3ccc(N(C)C)cc3)c3ccccc3n2[n+]1C |  | 22.3 | 0.354 | 1 | 3.73 | 2.98 | 1.78 | 1.58 µM | 6.04 | 2.95 | 21.4 | 1.32 |  |  |  |  | 
26 | NC1=C(NC(=O)Cc2ccccc2F)C(=O)c2ccccc2C1=O | > 100 | > 100 | > 100 | > 100 | > 100 | 50.9 | > 100 |  | 69.7 | > 100 | > 100 | > 100 |  |  |  |  | 
27 | [N-]=[N+]=NC1OC(=O)C(Cl)=C1N=P(c1ccccc1)(c1ccccc1)c1ccccc1 (centres undefined) | > 10 | > 10 | > 10 | > 10 | > 10 | > 10 | > 10 | > 10 µM | > 10 | > 10 | > 10 | 8.72 |  |  |  |  | 
28 | CCN(CC)CCCNc1ccc2nc(C)n3c4ccc(O)cc4c(=O)c1c23 | 18.7 | 23.6 | 20.3 | 22.6 | 21.5 | 22.8 | 19.6 | 24.5 µM | 16.4 | 23.5 | 37.2 | 17 |  |  |  |  | 
29 | CC(C)(C)OC(=O)N(CCCCNC(=O)OCc1ccccc1)CCCNC(=O)OCc1ccccc1 | > 100 |  | > 100 | > 100 | > 100 |  | > 100 | 22.5 µM | > 100 | > 100 | > 100 | 30 | > 100 |  |  |  | 
